Patent publication US20190185865A1, “USE OF PROKARYOTIC TRANSCRIPTIONAL ACTIVATORS AS METABOLITE BIOSENSORS IN EUKARYOTIC CELLS” (Danmarks Tekniske Universitet, priority 2016, published 2019)

Molecular target: T1, BenM (Acinetobacter baylyi, UniProt O68014)
T1 construct: expressed in transfected cells; host or cells: Saccharomyces cerevisiae CEN.PK113-5A, chromosomal integration; promoters TDH3p, TEF1p, RNR2p or REV1p
Assay: CCM-induced GFP expression in yeast strains combining BenM expression cassettes and CYC1p reporter promoter variants (flow cytometry)
Format: cell-based, Saccharomyces cerevisiae
Settings: for FC (+/−CCM): 1.4 mM CCM
Source text: Strains, chemicals and media. Saccharomyces cerevisiae CEN.PK102-5B (MATa ura3-52 his3Δ1 leu2-3/112 MAL2-8^c SUC2), CEN.PK113-5A (MATa, trp1 his3Δ1 leu2-3/112 MAL2-8^c SUC2) and CEN.PK113-7D (wild type, MATa MAL2-8^c SUC2) strains were obtained from Peter Kotter (Johann Wolfgang Goethe-University Frankfurt, Germany). In principal any other yeast strains may be used, such as one obtained from public repository EuroScarf. EasyClone plasmids used in this work are described in Jensen, N. B. et al. EasyClone: method for iterative chromosomal integration of multiple genes in Saccharomyces cerevisiae. FEMS Yeast Res. 14, 238-48 (2014). Escherichia coli strain DH5a was used as a host for cloning and plasmid propagation. The chemicals and Pfu TURBO DNA polymerase were commercially obtained (Sigma-Aldrich and Agilent Technologies Inc., respectively). All acids used were >97% in purity. S. cerevisiae cells were grown at 30° C. in synthetic complete medium as well as drop-out media and agar plates were prepared using pre-mixed drop-out powders (Sigma-Aldrich). Mineral medium was freshly prepared as described previously. For all media containing diacids, 1.4 mM of the individual diacids were dissolved in mineral medium and pH adjusted to 4.5 before sterile filtration. For CCM several dilutions were made to examine the performance of the CCM biosensor. For naringenin, mineral medium was supplemented with 0, 0.05, 0.10 or 0.20 mM naringenin, dissolved in ethanol, the final ethanol concentration for each medium was 2% (v/v), and the final pH of the medium was adjusted to 6.0. E. coli cells were grown at 37° C. in Luria-Bertani (LB) medium supplemented with 100 μg/mL ampicillin.
Events were analyzed using FlowJo software (TreeStar Inc.).

T1 sequence (O68014 whole entry): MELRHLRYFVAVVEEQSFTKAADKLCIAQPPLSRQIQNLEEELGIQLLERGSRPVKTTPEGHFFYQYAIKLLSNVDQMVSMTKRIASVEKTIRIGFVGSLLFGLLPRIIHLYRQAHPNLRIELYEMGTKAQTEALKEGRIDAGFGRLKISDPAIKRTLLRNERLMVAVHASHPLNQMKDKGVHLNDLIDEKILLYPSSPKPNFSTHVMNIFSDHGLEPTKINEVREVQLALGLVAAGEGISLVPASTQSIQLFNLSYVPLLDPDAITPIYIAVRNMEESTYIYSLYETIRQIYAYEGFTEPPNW

SMILES: O=C(O)/C=C\C=C/C(=O)O [CCM, cis, cis-muconic acid]
- maximum induction of GFP output (chromosomally integrated BenM, 1.4 mM (200 mg/L) CCM, 24 h): 3.5 fold
- increase in reporter output from all CYC1 promoters that harbored BenO (full-length CYC1p with BenO (T1, T2, T1/T2), BenM from TEF1p, 200 mg/L CCM, pH 4.5, 24 h): 1.3-2.2 fold
- highest dynamic range (CCM-inducibility) (minimal promoters 249 bp_CYC1p_BenO_T1 and 209 bp_CYC1p_BenO_T1): 3.2-4.7 fold
- change in reporter output from native CYC1p (native CYC1p, 200 mg/L CCM, pH 4.5, 24 h): no change
- Mean fluorescense intensities of GFP (24 h), CCM (1.4 mM) (strain MeLS0020, TEF1p-BenM + 491bp_CYC1p_BenO_T2:GFP): 813
- FC (+/−CCM) (strain MeLS0020, TEF1p-BenM + 491bp_CYC1p_BenO_T2:GFP, 24 h): 2.224
- Mean fluorescense intensities of GFP (24 h), CCM (1.4 mM) (strain MeLS0021, TEF1p-BenM + 491bp_CYC1p_BenO_T1/T2:GFP): 2967
- FC (+/−CCM) (strain MeLS0021, TEF1p-BenM + 491bp_CYC1p_BenO_T1/T2:GFP, 24 h): 2.184
- Mean fluorescense intensities of GFP (24 h), CCM (1.4 mM) (strain MeLS0025, TEF1p-BenM + 209bp_CYC1p_BenO_T1:GFP): 4139
- FC (+/−CCM) (strain MeLS0025, TEF1p-BenM + 209bp_CYC1p_BenO_T1:GFP, 24 h): 3.494
- Mean fluorescense intensities of GFP (24 h), CCM (1.4 mM) (strain MeLS0026, TEF1p-BenM + 209bp_CYC1p_BenO_T2:GFP): 406
- FC (+/−CCM) (strain MeLS0026, TEF1p-BenM + 209bp_CYC1p_BenO_T2:GFP, 24 h): 1.068
- Mean fluorescense intensities of GFP (24 h), CCM (1.4 mM) (strain MeLS0027, TEF1p-BenM + 209bp_CYC1p_BenO_T1/T2:GFP): 1879
- FC (+/−CCM) (strain MeLS0027, TEF1p-BenM + 209bp_CYC1p_BenO_T1/T2:GFP, 24 h): 3.394
- Mean fluorescense intensities of GFP (24 h), CCM (1.4 mM) (strain MeLS0044, REV1p-BenM + 491bp_CYC1p_BenO_T2:GFP): 667
- FC (+/−CCM) (strain MeLS0044, REV1p-BenM + 491bp_CYC1p_BenO_T2:GFP, 24 h): 1.524
- Mean fluorescense intensities of GFP (24 h), CCM (1.4 mM) (strain MeLS0045, REV1p-BenM + 491bp_CYC1p_BenO_T1/T2:GFP): 1698
- FC (+/−CCM) (strain MeLS0045, REV1p-BenM + 491bp_CYC1p_BenO_T1/T2:GFP, 24 h): 1.418
- CCM-inducibility (strain MeLS0049, 209 bp_CYC1p_BenO_T1, BenM from REV1p): 3.8 fold
- Mean fluorescense intensities of GFP (24 h), CCM (1.4 mM) (strain MeLS0049, REV1p-BenM + 209bp_CYC1p_BenO_T1:GFP): 880
- FC (+/−CCM) (strain MeLS0049, REV1p-BenM + 209bp_CYC1p_BenO_T1:GFP, 24 h): 3.81
- Mean fluorescense intensities of GFP (24 h), CCM (1.4 mM) (strain MeLS0050, REV1p-BenM + 209bp_CYC1p_BenO_T2:GFP): 182
- FC (+/−CCM) (strain MeLS0050, REV1p-BenM + 209bp_CYC1p_BenO_T2:GFP, 24 h): 1.166
- Mean fluorescense intensities of GFP (24 h), CCM (1.4 mM) (strain MeLS0051, REV1p-BenM + 209bp_CYC1p_BenO_T1/T2:GFP): 307
- FC (+/−CCM) (strain MeLS0051, REV1p-BenM + 209bp_CYC1p_BenO_T1/T2:GFP, 24 h): 1.569
- Mean fluorescense intensities of GFP (24 h), CCM (1.4 mM) (strain MeLS0070, RNR2p-BenM + 209bp_CYC1p_BenO_T1/T2:GFP): 356
- FC (+/−CCM) (strain MeLS0070, RNR2p-BenM + 209bp_CYC1p_BenO_T1/T2:GFP, 24 h): 1.775
- Mean fluorescense intensities of GFP (24 h), CCM (1.4 mM) (strain MeLS0079, TEF1p-BenM): 185
- FC (+/−CCM) (strain MeLS0079, TEF1p-BenM, 24 h): 1.071
- Mean fluorescense intensities of GFP (24 h), CCM (1.4 mM) (strain MeLS0081, REV1p-BenM): 175
- FC (+/−CCM) (strain MeLS0081, REV1p-BenM, 24 h): 1.105
- Mean fluorescense intensities of GFP (24 h), CCM (1.4 mM) (strain MeLS0139, REV1p-BenM + 491bp_CYC1p:GFP): 2231
- FC (+/−CCM) (strain MeLS0139, REV1p-BenM + 491bp_CYC1p:GFP, 24 h): 0.9828
- Mean fluorescense intensities of GFP (24 h), CCM (1.4 mM) (strain MeLS0140, REV1p-BenM + 272bp_CYC1p:GFP): 183
- FC (+/−CCM) (strain MeLS0140, REV1p-BenM + 272bp_CYC1p:GFP, 24 h): 1.105
- Mean fluorescense intensities of GFP (24 h), CCM (1.4 mM) (strain MeLS0141, REV1p-BenM + 249bp_CYC1p:GFP): 176
- FC (+/−CCM) (strain MeLS0141, REV1p-BenM + 249bp_CYC1p:GFP, 24 h): 1.056
- Mean fluorescense intensities of GFP (24 h), CCM (1.4 mM) (strain MeLS0142, REV1p-BenM + 209bp_CYC1p:GFP): 174
- FC (+/−CCM) (strain MeLS0142, REV1p-BenM + 209bp_CYC1p:GFP, 24 h): 1.09
- Mean fluorescense intensities of GFP (24 h), CCM (1.4 mM) (strain MeLS0143, REV1p-BenM + 491bp_CYC1p_BenO_T1:GFP): 5789
- FC (+/−CCM) (strain MeLS0143, REV1p-BenM + 491bp_CYC1p_BenO_T1:GFP, 24 h): 1.088
- Mean fluorescense intensities of GFP (24 h), CCM (1.4 mM) (strain MeLS0144, REV1p-BenM + 272bp_CYC1p_BenO_T1:GFP): 804
- FC (+/−CCM) (strain MeLS0144, REV1p-BenM + 272bp_CYC1p_BenO_T1:GFP, 24 h): 2.381
- Mean fluorescense intensities of GFP (24 h), CCM (1.4 mM) (strain MeLS0145, REV1p-BenM + 249bp_CYC1p_BenO_T1:GFP): 405
- FC (+/−CCM) (strain MeLS0145, REV1p-BenM + 249bp_CYC1p_BenO_T1:GFP, 24 h): 1.953
- Mean fluorescense intensities of GFP (24 h), CCM (1.4 mM) (strain MeLS0147, TDH3p-BenM + 272bp_CYC1p_BenO_T1:GFP): 4984
- FC (+/−CCM) (strain MeLS0147, TDH3p-BenM + 272bp_CYC1p_BenO_T1:GFP, 24 h): 3.738
- Mean fluorescense intensities of GFP (24 h), CCM (1.4 mM) (strain MeLS0148, TEF1p-BenM + 272bp_CYC1p_BenO_T1:GFP): 4032
- FC (+/−CCM) (strain MeLS0148, TEF1p-BenM + 272bp_CYC1p_BenO_T1:GFP, 24 h): 3.463
- Mean fluorescense intensities of GFP (24 h), CCM (1.4 mM) (strain MeLS0149, RNR2p-BenM + 272bp_CYC1p_BenO_T1:GFP): 854
- FC (+/−CCM) (strain MeLS0149, RNR2p-BenM + 272bp_CYC1p_BenO_T1:GFP, 24 h): 2.313
- Mean fluorescense intensities of GFP (24 h), CCM (1.4 mM) (strain MeLS0150, TDH3p-BenM + 209bp_CYC1p_BenO_T1:GFP): 4868
- FC (+/−CCM) (strain MeLS0150, TDH3p-BenM + 209bp_CYC1p_BenO_T1:GFP, 24 h): 4.082
- Mean fluorescense intensities of GFP (24 h), CCM (1.4 mM) (strain MeLS0151, RNR2p-BenM + 209bp_CYC1p_BenO_T1:GFP): 859
- FC (+/−CCM) (strain MeLS0151, RNR2p-BenM + 209bp_CYC1p_BenO_T1:GFP, 24 h): 3.735
- Mean fluorescense intensities of GFP (24 h), CCM (1.4 mM) (strain MeLS0152, TDH3p-BenM): 184
- FC (+/−CCM) (strain MeLS0152, TDH3p-BenM, 24 h): 1.08
- Mean fluorescense intensities of GFP (24 h), CCM (1.4 mM) (strain MeLS0153, RNR2p-BenM): 174
- FC (+/−CCM) (strain MeLS0153, RNR2p-BenM, 24 h): 1.13
- Mean fluorescense intensities of GFP (24 h), CCM (1.4 mM) (strain MeLS0156, TEF1p-BenM + 491bp_CYC1p:GFP): 3016
- FC (+/−CCM) (strain MeLS0156, TEF1p-BenM + 491bp_CYC1p:GFP, 24 h): 0.9902
- Mean fluorescense intensities of GFP (24 h), CCM (1.4 mM) (strain MeLS0157, TEF1p-BenM + 272bp_CYC1p:GFP): 198
- FC (+/−CCM) (strain MeLS0157, TEF1p-BenM + 272bp_CYC1p:GFP, 24 h): 1.13
- Mean fluorescense intensities of GFP (24 h), CCM (1.4 mM) (strain MeLS0158, TEF1p-BenM + 249bp_CYC1p:GFP): 175
- FC (+/−CCM) (strain MeLS0158, TEF1p-BenM + 249bp_CYC1p:GFP, 24 h): 1.117
- Mean fluorescense intensities of GFP (24 h), CCM (1.4 mM) (strain MeLS0159, TEF1p-BenM + 209bp_CYC1p:GFP): 177
- FC (+/−CCM) (strain MeLS0159, TEF1p-BenM + 209bp_CYC1p:GFP, 24 h): 1.132
- Mean fluorescense intensities of GFP (24 h), CCM (1.4 mM) (strain MeLS0160, RNR2p-BenM + 491bp_2YC1p:GFP): 2811
- FC (+/−CCM) (strain MeLS0160, RNR2p-BenM + 491bp_2YC1p:GFP, 24 h): 1.071
- Mean fluorescense intensities of GFP (24 h), CCM (1.4 mM) (strain MeLS0161, RNR2p-BenM + 272bp_CYC1p:GFP): 180
- FC (+/−CCM) (strain MeLS0161, RNR2p-BenM + 272bp_CYC1p:GFP, 24 h): 1.049
